From EPA's ToxValDB 9.5 (doi:10.2903/j.efsa.2011.2096) come the findings set out here.

The structures appear in SMILES notation. In brackets after ≈: the same amount, converted by molar mass. Bounds are passed on as bounds.

For one data set, the system named is Typhlodromus pyri. Description: LR50; higher = less toxic. Conditions: not reported; mortality.
The next data set concerns Aphidius rhopalosiphi. Description: LR50; higher = less toxic. Conditions: not reported; mortality.
Another data set has as its system Apis mellifera. Conditions: acute; duration: 48 hours; oral; unspecified; mortality.
The next data set relates to Lepomis macrochirus. The note with it: acute; duration: 96 hours; mortality.
In a further data set the test system is Canidae. Conditions: chronic; duration: 1 years; oral; Dog Other; body weight.
For a further data set, the system named is Plant. Conditions: chronic/long-term; seedling emergence.
A further data set has as its system Daphnia magna. The note with it: chronic/long-term; duration: 21 days; reproduction.
The test system of the next data set is Colinus virginianus. Conditions: mortality.
In another data set the test system is Anas platyrhynchos. The note with it: oral, mortality.
A further data set relates to Pimephales promelas. The note with it: chronic/long-term; duration: 21 days.
In the next data set the test system is Oryctolagus sp. Conditions: developmental; development.

The NOAEL is the highest dose or exposure tested at which no adverse effect was seen. Turning to `O=c1c2cc(F)ccc2nc(-n2cncn2)n1-c1ccc(Cl)cc1Cl` [Fluquinconazole], the LR50 in the data set with Typhlodromus pyri and in the data set on Aphidius rhopalosiphi was less than 149 g/ha throughout. The LD50 with Apis mellifera is greater than 100 µg/piece; in the data set with Colinus virginianus (acute, oral), greater than 2000 mg/kg-day; with Anas platyrhynchos (acute, unspecified) it was greater than 2000 mg/kg-day; in the data set with Rattus norvegicus (acute, oral, mortality), 112 mg/kg-day. Besides, the LC50 is 1.34 µg/mL (≈ 3.56 µM) in the data set with Lepomis macrochirus; 704 mg/kg-day in the data set on Colinus virginianus (acute, oral, diet); greater than 210 mg/kg-day in the data set with Anas platyrhynchos (short-term, feed); greater than 1000 mg/kg in the data set on Tagia sp. (acute, duration: 14 days, mortality). The NOAEL came out at 0.2 mg/kg-day in the data set with Canidae; 0.9 mg/kg-day with Rattus norvegicus (chronic, mortality); 2 mg/kg-day in the data set on Rattus norvegicus (developmental, development); 2 mg/kg-day in the data set on Oryctolagus sp.. In addition, the NOEC with Plant was greater than 1000 g/ha; in the data set on Daphnia magna, 0.648 mg/L; in the data set with Colinus virginianus (reproduction developmental), 1.9 mg/kg-day; in the data set on Pimephales promelas, 0.154 mg/L; in the data set with Tagia sp. (chronic/long-term, duration: 56 days), 0.5 mg/kg.
